From article PMC10214526, “Semisynthetic LC3 Probes for Autophagy Pathways Reveal a Noncanonical LC3 Interacting Region Motif Crucial for the Enzymatic Activity of Human ATG3” (ACS Central Science, 2023) come the findings set out here.

The subject of one assay is Ube2K. As to the kind of experiment: Reaction of Ubl probes with ubiquitin E2 Ube2K. The format is biochemical. The conditions noted are these: probe 15 μM, Ube2K 15 μM, 1 h, SDS-PAGE. How it is done:
Figure 1 Modification of ATG3 with GABARAP ABPs depends on LIR^ATG3. a. Characterization of GABARAP activity-based probes, 1 and 2, obtained by hydrazide-acylation. Deconvoluted mass-spectrum (ESI) of GABARAP(ΔG116)–NHNH α-chloroacetyl 1. Expected mass 13707 Da. Deconvoluted mass-spectrum (ESI) of GABARAP(ΔG116)–NHNH methyl-fumarate 2. Expected mass 13743 Da. b. […] The reaction was allowed to proceed for 1 h and was analyzed by SDS-PAGE and Coomassie Blue staining. c. ColabFold-predicted structure of the protein-complex of ATG3 and GABARAP. Side-chain atoms are shown for the predicted LIR motif in ATG3 (90–112). d. Reaction of 2 (15 μM) with ATG3 variants C1, C0, and ΔLIR (15 μM). ATG3 C1 contains only active-site cysteine C264. ATG3 C0 contains no cysteines. ATG3 ΔLIR lacks amino acids 95–111. Reaction was allowed to proceed for 1 h and was analyzed by SDS-PAGE and Coomassie Blue staining. […]
Farnung et al. Supplementary Information and monitored using LC-MS analysis. […]
SUMO-GABARAP/LC3A-Mxe GyrA-His6 fusion after Ni-NTA purification was dialyzed against intein cleavage buffer (25 mM HEPES, 500 mM NaCl, 1 mM EDTA pH 7.2 at 4 °C). […] The solution was allowed to stand at room temperature and monitored using LC-MS analysis. […]
Ubl probes (15 μM) were mixed with E2s (15 μM) in PBS. […] If required, gel bands were quantified by gel densitometry using ImageLab (Bio- […]

The subject of a further assay is ATG3. Kind of assay: Reaction (cross-linking) of Ubl activity-based probes with recombinant ATG3 and variants. The format is biochemical, human. The conditions noted are these: probe 15 μM, SDS-PAGE. The method, then:
Figure 1 Modification of ATG3 with GABARAP ABPs depends on LIR^ATG3. a. Characterization of GABARAP activity-based probes, 1 and 2, obtained by hydrazide-acylation. Deconvoluted mass-spectrum (ESI) of GABARAP(ΔG116)–NHNH α-chloroacetyl 1. Expected mass 13707 Da. Deconvoluted mass-spectrum (ESI) of GABARAP(ΔG116)–NHNH methyl-fumarate 2. Expected mass 13743 Da. b. […] The reaction was allowed to proceed for 1 h and was analyzed by SDS-PAGE and Coomassie Blue staining. c. ColabFold-predicted structure of the protein-complex of ATG3 and GABARAP. Side-chain atoms are shown for the predicted LIR motif in ATG3 (90–112). d. Reaction of 2 (15 μM) with ATG3 variants C1, C0, and ΔLIR (15 μM). ATG3 C1 contains only active-site cysteine C264. ATG3 C0 contains no cysteines. ATG3 ΔLIR lacks amino acids 95–111. Reaction was allowed to proceed for 1 h and was analyzed by SDS-PAGE and Coomassie Blue staining. Full-gel images for b and d are available in the Supplementary Information.
We were intrigued by the cross-linking efficiency of 2 with ATG3 and sought to investigate the origin of this efficiency by generating a C1 variant of ATG3 that only contains the catalytic cysteine 264 and a corresponding C0 variant containing no cysteines. […] In general, the affinity of E2s for their cognate Ubls are quite low, as the thioester transfer from the E1 to the E2 enzyme is facilitated by additional interactions from the UFD domain of the E1 enzyme.[23] […]
Upon completion the solution was dialyzed against 25 mM
HEPES, 200 mM NaCl pH 7.2 at 4 °C. Cleaved intein was removed using gravity Ni-NTA purification.
The flow-through was collected and combined with resin washes. The combined fractions were dialyzed and further purified using ion exchange.
3.3. Generation of GABARAP and LC3A hydrazides from SUMO-GABARAP/LC3A-Mxe GyrA-
SUMO-GABARAP/LC3A-Mxe GyrA-His6 fusion after Ni-NTA purification was dialyzed against intein cleavage buffer (25 mM HEPES, 500 mM NaCl, 1 mM EDTA pH 7.2 at 4 °C). After dialysis hydrazine monohydrate (75 mM) and MESNa (10 mM) was added and the pH adjusted to 7.8. The solution was allowed to stand at room temperature and monitored using LC-MS analysis. Upon completion the solution was dialyzed against 25 mM HEPES, 500 mM NaCl pH 7.2 at 4 °C. SENP1 (1 wt%) was added to cleave the SUMO-tag. The cleaved intein was removed using gravity Ni-NTA purification. […]
dialyzed and further purified using cation exchange using a buffer 25 mM Tris pH 8.0 and a gradient of […] in the same buffer over 25 column volumes. The product fractions were pooled, concentrated, and stored at –80 °C until further use.
3.4. Synthesis of symmetrical anhydrides
The carboxylic acid was dissolved in CH2Cl2 (300 mM) and dicyclohexylcarbodiimide (0.5 eqiv) was added in one portion. The reaction was stirred under N2 for 18 h. The suspension was filtered and concentrated to ~10% of the initial volume. The solution was placed at 4 °C for 1 h and filtered again.
The filtrate was concentrated to obtain the symmetrical anhydride which was used without further purification. Anhydrides can be stored at –20 °C for weeks.
3.5. Reaction of modified Ubl probes with E2s
Ubl probes (15 μM) were mixed with E2s (15 μM) in PBS. The mixture was incubated at 37 °C in a water bath for 0.5-3 h. The reaction was quenched by addition of 2x Laemmli buffer and boiled at 95 °C for 5 min. Samples were resolved by SDS-PAGE (8-16%, Bio-Rad) and visualized by […]
Coomassie staining. […]

Another assay has as its system ATG3 C1 alanine variants. Kind of assay: Alanine screen: cross-linking of probe 2 with ATG3 C1 alanine variants. The note with it: probe 2 15 μM, PBS, 37 °C, 30 min, n = 2. The format is biochemical, human. How it is done:
Figure 4 Dissection of interactions between GABARAP and LIR^ATG3 by alanine scanning. GABARAP probe 2 (15 μM) was reacted with ATG3 C1 alanine variants (15 μM) for 30 min. Coomassie Blue stained SDS-PAGE gel showing modification of ATG3 C1 variants with GABARAP methyl fumarate. The indicated ATG3 residues were mutated to alanine. Cross-linking efficiency was estimated by gel densitometry and normalized to the reaction with ATG3 C1. Data are presented as average values ± s.d. n = 2 independent experiments. Full-gel images are available in the Supplementary Information.
Farnung et al. Supplementary Information
SDS-PAGE (8-16%, Bio-Rad) and visualized by Coomassie staining. Gel bands were quantified by gel densitometry using ImageLab (Bio-Rad).
ATG3 C1 (15 μM) was mixed with GABARAP methyl fumarate 2 (15 μM) in PBS, and the reaction mixture was incubated at 37 °C for 30 min. The reaction was quenched by addition of 2x Laemmli buffer and boiled at 95 °C for 5 min. Samples were resolved by SDS-PAGE (8-16%, Bio-Rad) and visualized by Coomassie staining. Gel bands were quantified by gel densitometry using ImageLab […]
3.9. Structure prediction […]
! ! ( )"% - ) ( $&, . "#*( *"&% % *! "#*( * &% %*( * +% ( ( + '( ))+( ! )&#+*"&%- )*("*+( * -"*! * % %*(" + *&& * "% (+ ' '*" ! […]

For the substance “GABARAP(ΔG116)–NHNH methyl-fumarate [compound 2]”, in the assay on Ube2K, the “Reaction with Ube2K” value is reported as “did not react”. The “Reaction with ATG3 wt” value in the assay with ATG3 (ATG3 15 μM, 1 h, Coomassie Blue) was “reacted with ATG3 efficiently leading to the formation of multiple ATG3–GABARAP bands”. Moreover, in the assay on ATG3 (ATG3 C0 (no cysteines) 15 μM), the “Reaction with ATG3 C0” value was “no reaction was observed”. For the same substance, the “Reaction with ATG3 C1” value in the assay on ATG3 (ATG3 C1 (only active-site C264) 15 μM) is listed as “excellent reactivity”. Moreover, the “Reaction with ATG3 ΔLIR” value with ATG3 (ATG3 C1 ΔLIR (Δ95–111) 15 μM) is “no complex formation”. Also, the “Reaction with ATG3 C264A” value in the assay on ATG3 (catalytically inactive ATG3 C264A 15 μM) is reported as “loss of one ATG3–GABARAP band but did not abrogate additional bands for the complex”. Further, the “Cross-linking with ATG3 D109 or T110 mutants” value in the assay with ATG3 C1 alanine variants (D109 or T110 to alanine, ATG3 C1 variant 15 μM) was “almost no effect on reaction efficiency”. In the assay on ATG3 C1 alanine variants (E95 and I97 to alanine, ATG3 C1 variant 15 μM), the “Cross-linking with ATG3 E95 and I97 mutants” value is “severely diminish cross-linking”. Also, the “Cross-linking with ATG3 V108A” value with ATG3 C1 alanine variants (V108A, ATG3 C1 variant 15 μM, relative to ATG3 C1) is reported as “significantly reduced the cross-linking efficiency”. Besides, the “Cross-linking with ATG3 W107 mutant” value in the assay with ATG3 C1 alanine variants (W107A, ATG3 C1 variant 15 μM, relative to ATG3 C1) is on record as “almost completely abrogated the reaction”. Besides, in the assay with ATG3 C1 alanine variants (majority of the other screened residues), the “Cross-linking with other ATG3 alanine mutants” value was “at least some impact on the conjugation with GABARAP”.
